Experimental data published in US11647748B2, “Sulphonamides as methionine metabolic pathway inhibitors” (MIGAL-GALILEE RESEARCH INSTITUTE LTD., priority 2018, dated 2023).

Legend:
Arabidopsis thaliana = test: Arabidopsis root length (root growth inhibition); format: in vivo; conditions: 50 μM compound; for Arabidopsis (relative to DMSO): root length ratio vs DMSO control, lower = shorter root; for Arabidopsis root length: ratio vs DMSO control, Table 4
Procedure: Finally, FIGS. 7a-7h are the photos of the Arabidopsis thaliana plants and the inhibition of their roots growth by the compounds of the present invention. These experiments were conducted as follows. Seeds were washed with 70% ethanol for one minute and then with sterile water. Sterilisation was performed with 50% bleaching solution (3%) and 0.2% Triton x-100 for ten minutes followed by a five-time wash with sterile water. The seeds were placed in six well-plates with half Murashige and Skoog medium (MS; Duchefa, Haarlem, Netherlands), containing 1% sucrose (w/v), pH 5.8. The plates with Arabidopsis thaliana seeds were placed at 4° C. for two days and then transferred for seven days to growth chamber (22±2° C.) at day/light cycles of 16/8 h. The plates were placed vertically. In each plate, a control including 0.1% DMSO in the medium was added. The compounds of the present invention were tested for their herbicidal efficiency by diluting 1000 times a 50 mM stock in DMSO leading to a final concentration of 50 μM with 0.1% DMSO.
In Tables 1 and 2 above, Arabidopsis root length was measured after addition of 50-μM compound compared with the negative control (DMSO) treatment. Length values indicate the ratio between non-treated plates ([…]) and the length after the addition of 50 μM of each compound. Lower values indicate shorter root length, and consequently, larger effect.

Roquette = Roquette assay spray; format: in vivo
BY2 Tobacco cells = test: BY-2 viability assay (PrestoBlue); format: cell-based; conditions: viability relative to DMSO-treated cells, 25 μM, 48 hours; for Tobacco cells BY-2 (all (relative to DMSO)): Table 3; for Tobacco cells BY-2 results/DMSO: Table 5
Procedure: Reference is now made to FIG. 5 showing the BY-2 viability assay. In this assay, the viability of BY2 Tobacco cells was tested following treatment with the compounds of the present invention. For this purpose, cells were cultured in Murashige and Skoog basal medium (Sigma-Aldrich, Cat #M0404), supplemented with 2,4-dichloro-phenoxyacetic acid (0.2 mg/L), and sucrose (3%), and incubated in the dark, at 25° C. and then sub-cultured at a 1:15 dilution in fresh media every 7 days.
Before treatment, the cell suspension was adjusted to OD=0.4 (at 600 nm) and seeded in 6 well plates with a volume of 3 ml […]. The exemplified compounds were then added to the wells, at a final concentration of 25 μM (0.05% DMSO), and incubated for 48 hours. Cellular viability was measured using the commercially available PrestoBlue™ assay (ThermoFisher Scientific, PrestoBlue™ Cell Viability Reagent Cat #A13261). The PrestoBlue™ reagent is a cell-permeant non-fluorescent compound, which is reduced by metabolically active cells and providing a quantitative fluorescent signal. In the assay, 10 μL of the PrestoBlue™ reagent was added to 90 μL of the treated cells and fluorescence measurements were performed done with excitation/emission wavelengths of 560/590 nm in Tecan M200 plate reader.
Tables 1-3 and also the following Table 5 show the results of the BY-2 viability assay described above.

Tobacco CGS [1] = molecular target: T1, Tobacco CGS (Nicotiana tabacum, UniProt Q9ZPL5); test: TEV experiment (relative to DMSO); format: biochemical; set-up: 6xHIS (N, cleaved yes); GB1 solubility tag (N, cleaved yes); made in house; host or cells: E. coli BL-21
T1 sequence (Q9ZPL5 79-540): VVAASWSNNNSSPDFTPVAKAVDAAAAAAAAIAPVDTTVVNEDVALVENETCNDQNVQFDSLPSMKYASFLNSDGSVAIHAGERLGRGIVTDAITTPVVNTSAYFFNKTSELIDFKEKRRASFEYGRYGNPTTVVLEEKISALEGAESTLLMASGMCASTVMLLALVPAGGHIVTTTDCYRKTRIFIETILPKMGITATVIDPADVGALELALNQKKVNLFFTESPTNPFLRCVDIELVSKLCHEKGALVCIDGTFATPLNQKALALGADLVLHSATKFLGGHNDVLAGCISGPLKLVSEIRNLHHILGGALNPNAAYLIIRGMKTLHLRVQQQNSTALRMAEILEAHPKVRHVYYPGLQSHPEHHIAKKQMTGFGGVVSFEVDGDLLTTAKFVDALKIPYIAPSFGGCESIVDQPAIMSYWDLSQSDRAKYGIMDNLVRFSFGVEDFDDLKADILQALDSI
Procedure: As discussed above, the first reaction in methionine biosynthesis in plants is catalyzed by the CGS enzyme. In this reaction, the formation of cystathionine is conducted by the γ-replacement of the phosphoryl substituent of O-phospho-homoserine by cysteine and consecutive release of an orthophosphate group.
Expression of recombinant CGS was done by transforming the pET-11 vector containing the DNA sequence of Tobacco CGS with a 6×HIS tag and GB1 solubility tag followed by TEV cleavage site into BL-21 cells. These cells were cultured at 37° C. and optical density (OD)=0.8 protein at 600 nm, and the expression was induced by addition of 1 mM IPTG for 16 hours at 25° C. The protein was purified to homogeneity onto nickel column and cleaved by o/n dialysis with the TEV protease. A second nickel column was used to separate the cleaved CGS from the TEV and GB1 solubility tag.
The direct activity of CGS was tested using the Malachite Green Phosphate Assay Kit (Sigma-Aldrich, cat #MAK307-1KT). It is a highly sensitive and robust experiment used to measure the release of free orthophosphate group based on quantification of the green-coloured complex formed between Malachite Green, molybdate, and free orthophosphate. The rapid colour formation from the reaction can be conveniently measured on a spectrophotometer via the absorbance at 620 nm.
The assay mixture (100 μl) contained 50 mM MOPS-NaOH (pH 7.5), 150 mM NaCl, 0.1 mM PLP and 1 μM purified CGS. The compounds of the present invention were added at a final concentration of 50 μM and reactions were initiated by adding 2 mM cysteine and 3 mM 0-phospho-L-homo-serine. After two-hour incubation at 25° C., 80 μL of each sample were transferred into a new 96 well-plate containing 20 μl of Malachite Green Reagent and incubated for additional 30 min at 25° C. Colour development was measured by a plate reader Tecan M200 (620 nm).

[2] = tested on: E. coli cells lacking the endogenic MetB CGS gene and transformed to express the CGS from Arabidopsis; test: E. coli specificity (MOA): growth of E. coli expressing Arabidopsis CGS with and without methionine; format: cell-based; conditions: score
Procedure: In addition to the direct binding evaluation, specific assay to test the compounds activity and specificity were also developed. In this assay, E. coli cells, lacking the endogenic MetB CGS gene and transformed to express the CGS from Arabidopsis, were used. These cells were grown on M9 minimal media with and without external methionine supplemented to the cells, in the presence of the compounds of the embodiments. These selected compounds of the embodiments, capable of inhibiting the cell growth on M9, but incapable of affecting the cell growth when supplemented with methionine, were validated as methionine-pathway specific inhibitors.
In this assay, Methionine auxotroph E. coli mutant was transformed with PQE-30 vector containing the Arabidopsis CGS gene as previously described in Yael Hacham et al., Plant Physiol., February 2002, 128(2): 454-462. In order to test the effect of the small molecule inhibitors on the CGS and methionine pathway, growth curves of the E. coli in M9 minimal media with 100 μM IPTG were measured with and without the addition of external methionine (40 mg/L) in the presence of variable compound concentrations. E. coli growth curves were measured by following the optical density at 600 nm of bacteria in 96 well-plate placed within Tecan M200 plate reader in orbital shaking mode at 37° C. The slope of each curve was estimated using the ‘finest’ function in Excel.

Tobacco CGS [3] = molecular target: T1, Tobacco CGS; test: Micro Scale Thermophoresis (MST) direct binding to CGS; set-up: 6xHIS (N, cleaved yes); GB1 solubility tag (N, cleaved yes); made in house; host or cells: E. coli BL21; conditions: score on scale 0-5; Table 3
Procedure: The direct binding of the compounds of the embodiments to the CGS was tested by Micro Scale Thermophoresis (MST). In the MST assay, the CGS protein was labelled with a fluorophore, the samples were heated, and changes in fluorescence were measured as a function of the ligand concentration. In the MST assay, similar to the expression and purification described above, the recombinant Tobacco CGS protein was expressed in E. coli BL21 cells and purified to homogeneity. For that particular purpose, the pET-11 vector containing the DNA sequence of Tobacco CGS with an N-terminus 6×HIS tag followed by a TEV-cleavable GB1 solubility tag was cloned and transformed into the bacteria cells. Cells were cultured to OD=0.8, and protein expression was induced by the addition of 1 mM IPTG. The cells were cultured for additional 16 hours temperature 25° C.
Following cellular lysis, the soluble fraction was passed through the nickel column and the bound HIS-tagged protein was eluted by 300 mM imidazole. […]
Thus, the MST assay was performed to measure the biding of the compounds to the CGS protein. […] The MST binding curves were then measured using the Monolith NT.115 apparatus by incubating the labelled protein with the indicated compounds in a dose-response manner.

Structure (SMILES): O=C(O)C1CN(S(=O)(=O)/C=C/c2ccc(Cl)cc2)c2ccccc21 (stereo not shown)
- Arabidopsis (relative to DMSO) (Arabidopsis thaliana; Table 1): 0.04
- Roquette assay spray (twice average) (Roquette; Table 1): 3.0
- Tobacco cells BY-2 (relative DMSO) (BY2 Tobacco cells; Table 1): 21
- TEV (relative to DMSO) (Tobacco CGS [1]; Table 1): 0.39

Structure (SMILES): O=C(O)CC1CN(S(=O)(=O)/C=C/c2ccc(Cl)cc2)c2ccccc21 (stereo not shown)
- Arabidopsis (relative to DMSO) (Arabidopsis thaliana; Table 1): 0.04
- Roquette assay spray (twice average) (Roquette; Table 1): 3.0
- Tobacco cells BY-2 (relative DMSO) (BY2 Tobacco cells; Table 1): 12
- E. coli specificity (MOA) ([2]; Table 1): 2

Structure (SMILES): O=C(O)C1Cc2ccccc2CN1S(=O)(=O)/C=C/c1ccccc1 (stereo not shown)
- Arabidopsis (relative to DMSO) (Arabidopsis thaliana; Table 1): 0.20
- Tobacco cells BY-2 (relative DMSO) (BY2 Tobacco cells; Table 1): 46
- E. coli specificity (MOA) ([2]; Table 1): 4

Structure (SMILES): O=C(O)CC1CN(S(=O)(=O)/C=C/c2ccccc2)c2ccccc21 (stereo not shown)
- Arabidopsis (relative to DMSO) (Arabidopsis thaliana; Table 1): 0.08
- Roquette assay spray (twice average) (Roquette; Table 1): 2.5
- Tobacco cells BY-2 (relative DMSO) (BY2 Tobacco cells; Table 1): 21
- E. coli specificity (MOA) ([2]; Table 1): 5
- TEV (relative to DMSO) (Tobacco CGS [1]; Table 1): 0.25

Structure (SMILES): COc1cccc2c1CC(C(=O)O)N2S(=O)(=O)/C=C/c1ccccc1Cl (stereo not shown)
- Arabidopsis (relative to DMSO) (Arabidopsis thaliana; Table 1): 0.24
- Roquette assay spray (twice average) (Roquette; Table 1): 2.0
- Tobacco cells BY-2 (relative DMSO) (BY2 Tobacco cells; Table 1): 17

Structure (SMILES): COc1cccc2c1[C@@H](C(=O)O)CN2S(=O)(=O)/C=C/c1cccc(Cl)c1
- Arabidopsis (relative to DMSO) (Arabidopsis thaliana; Table 1): 0.01
- Tobacco cells BY-2 (relative DMSO) (BY2 Tobacco cells; Table 1): 7
- TEV (relative to DMSO) (Tobacco CGS [1]; Table 1): 0.22

Structure (SMILES): O=C(O)C1Cc2ccccc2N1S(=O)(=O)c1ccc2ccccc2c1 (stereo not shown)
- Arabidopsis (relative to DMSO) (Arabidopsis thaliana; Table 2): 0.20
- Roquette assay spray (twice average) (Roquette; Table 2): 2.5
- Tobacco cells BY-2 (relative DMSO) (BY2 Tobacco cells; Table 2): 30
- TEV (relative to DMSO) (Tobacco CGS [1]; Table 2): 0.09

Structure (SMILES): O=C(O)C1Cc2ccccc2N1S(=O)(=O)C1Cc2ccccc2C1 (stereo not shown)
- TEV (relative to DMSO) (Tobacco CGS [1]; Table 2): 0.13

Structure (SMILES): Cc1ccccc1CS(=O)(=O)Nc1ccc2nncn2c1
- Tobacco cells BY-2 (all (relative to DMSO)) (BY2 Tobacco cells): 0
- E. coli specificity (MOA) ([2]; Table 3): 5

Structure (SMILES): O=S(=O)(Cc1ccccc1F)Nc1ccc2nncn2c1
- Tobacco cells BY-2 (all (relative to DMSO)) (BY2 Tobacco cells): 0
- MST Tobacco (0-5) (Tobacco CGS [3]): 5

Structure (SMILES): Cc1nc(-c2ccc(C)c(S(=O)(=O)Nc3cccc(C(=O)O)c3)c2)cs1 [IML-193]
- Arabidopsis root length (Arabidopsis thaliana): 0.50

Structure (SMILES): Cc1nc(-c2cccc(S(=O)(=O)Nc3cccc(C(=O)O)c3)c2)cs1 [IML-198]
- Arabidopsis root length (Arabidopsis thaliana): 0.31
- TEV-relative to DMSO (Tobacco CGS [1]; Table 6): 0.71

Structure (SMILES): COc1cccc(S(=O)(=O)Nc2cccc(-c3cn(Cc4ccccc4)nn3)c2)c1 [IML-226]
- Tobacco cells BY-2 results/DMSO (BY2 Tobacco cells): 60

Structure (SMILES): CCc1nc(-c2cccc(NS(=O)(=O)c3cccc(OC)c3)c2)no1 [IML-227]
- Arabidopsis root length (Arabidopsis thaliana): 0.36
- Tobacco cells BY-2 results/DMSO (BY2 Tobacco cells): 33
